# Data published in ChEMBL document CHEMBL4414631 (J Med Chem, 2019).
# pIC50: −log10 of the molar value.
# Legend:
# [1] = molecular target: Phosphatidylinositol 4,5-bisphosphate 3-kinase catalytic subunit beta isoform (Homo sapiens, UniProt P42338); assay: Inhibition of PI3Kbeta (unknown origin) using biotin-PIP3 as substrate preincubated for 15 mins followed by substrate addition and measured after 60 mins by fluorescence polarization assay
# [2] = molecular target: Albumin (Homo sapiens, UniProt P02768); assay: Binding affinity to human serum albumin by HPLC analysis; type: ADME; conditions: isolated protein
# Sequence of Albumin (P02768 whole entry): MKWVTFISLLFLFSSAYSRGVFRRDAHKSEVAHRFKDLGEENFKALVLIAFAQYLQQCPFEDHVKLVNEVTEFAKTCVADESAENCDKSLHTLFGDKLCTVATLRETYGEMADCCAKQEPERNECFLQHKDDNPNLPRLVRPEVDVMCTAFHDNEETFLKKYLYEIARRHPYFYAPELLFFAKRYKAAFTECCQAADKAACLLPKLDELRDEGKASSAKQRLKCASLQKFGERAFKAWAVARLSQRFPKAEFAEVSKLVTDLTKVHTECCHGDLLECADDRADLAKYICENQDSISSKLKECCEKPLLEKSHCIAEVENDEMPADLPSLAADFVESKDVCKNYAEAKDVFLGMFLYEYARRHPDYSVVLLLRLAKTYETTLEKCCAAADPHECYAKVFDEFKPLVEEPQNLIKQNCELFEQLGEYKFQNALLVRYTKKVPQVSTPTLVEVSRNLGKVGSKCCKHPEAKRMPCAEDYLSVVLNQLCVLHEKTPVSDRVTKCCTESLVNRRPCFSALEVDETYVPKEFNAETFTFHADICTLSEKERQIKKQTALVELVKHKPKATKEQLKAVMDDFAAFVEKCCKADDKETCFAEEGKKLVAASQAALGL
# [3] = Solubility of compound by CLND method; type: physicochemical
# [4] = Lipophilicity, logD of compound at pH 7.4 by HPLC-MS analysis; conditions: buffer
# [5] = molecular target: Phosphatidylinositol 4,5-bisphosphate 3-kinase catalytic subunit alpha isoform (Homo sapiens, UniProt P42336)
# Sequence of Phosphatidylinositol 4,5-bisphosphate 3-kinase catalytic subunit alpha isoform (P42336 whole entry, canonical isoform): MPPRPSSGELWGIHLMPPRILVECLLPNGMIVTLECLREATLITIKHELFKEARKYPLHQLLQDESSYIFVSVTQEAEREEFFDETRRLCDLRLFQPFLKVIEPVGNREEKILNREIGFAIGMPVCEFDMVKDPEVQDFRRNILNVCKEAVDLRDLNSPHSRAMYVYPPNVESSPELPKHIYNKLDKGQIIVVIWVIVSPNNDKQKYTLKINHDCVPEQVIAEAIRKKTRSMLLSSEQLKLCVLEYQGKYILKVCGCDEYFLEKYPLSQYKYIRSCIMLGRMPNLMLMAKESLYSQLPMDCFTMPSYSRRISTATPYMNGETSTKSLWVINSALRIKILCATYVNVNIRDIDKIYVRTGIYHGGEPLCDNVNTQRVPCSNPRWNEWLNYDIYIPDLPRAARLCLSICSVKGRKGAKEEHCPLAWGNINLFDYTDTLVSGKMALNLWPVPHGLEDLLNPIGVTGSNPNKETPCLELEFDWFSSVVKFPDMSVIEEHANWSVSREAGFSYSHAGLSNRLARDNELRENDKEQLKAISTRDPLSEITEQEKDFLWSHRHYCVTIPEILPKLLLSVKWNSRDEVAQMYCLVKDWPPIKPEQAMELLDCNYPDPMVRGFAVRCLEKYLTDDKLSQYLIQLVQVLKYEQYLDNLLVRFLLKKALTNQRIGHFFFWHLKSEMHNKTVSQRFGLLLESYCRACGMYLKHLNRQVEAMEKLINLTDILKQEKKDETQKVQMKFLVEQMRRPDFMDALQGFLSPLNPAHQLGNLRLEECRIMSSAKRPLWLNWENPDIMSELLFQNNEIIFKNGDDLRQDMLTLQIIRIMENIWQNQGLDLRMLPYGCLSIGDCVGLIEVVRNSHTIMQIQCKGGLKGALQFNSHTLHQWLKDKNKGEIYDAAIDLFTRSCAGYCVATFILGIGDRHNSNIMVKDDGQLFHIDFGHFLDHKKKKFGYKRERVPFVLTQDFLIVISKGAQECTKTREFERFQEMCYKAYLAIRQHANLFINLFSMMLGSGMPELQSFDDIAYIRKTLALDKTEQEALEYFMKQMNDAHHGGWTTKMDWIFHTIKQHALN
# Description: Inhibition of PI3Kalpha (unknown origin) using biotin-PIP3 as substrate preincubated for 15 mins followed by substrate addition and measured after 60 mins by fluorescence polarization assay
# [6] = molecular target: T1, Phosphatidylinositol 4,5-bisphosphate 3-kinase catalytic subunit delta isoform (Homo sapiens, UniProt O00329)
# T1 sequence (O00329 whole entry): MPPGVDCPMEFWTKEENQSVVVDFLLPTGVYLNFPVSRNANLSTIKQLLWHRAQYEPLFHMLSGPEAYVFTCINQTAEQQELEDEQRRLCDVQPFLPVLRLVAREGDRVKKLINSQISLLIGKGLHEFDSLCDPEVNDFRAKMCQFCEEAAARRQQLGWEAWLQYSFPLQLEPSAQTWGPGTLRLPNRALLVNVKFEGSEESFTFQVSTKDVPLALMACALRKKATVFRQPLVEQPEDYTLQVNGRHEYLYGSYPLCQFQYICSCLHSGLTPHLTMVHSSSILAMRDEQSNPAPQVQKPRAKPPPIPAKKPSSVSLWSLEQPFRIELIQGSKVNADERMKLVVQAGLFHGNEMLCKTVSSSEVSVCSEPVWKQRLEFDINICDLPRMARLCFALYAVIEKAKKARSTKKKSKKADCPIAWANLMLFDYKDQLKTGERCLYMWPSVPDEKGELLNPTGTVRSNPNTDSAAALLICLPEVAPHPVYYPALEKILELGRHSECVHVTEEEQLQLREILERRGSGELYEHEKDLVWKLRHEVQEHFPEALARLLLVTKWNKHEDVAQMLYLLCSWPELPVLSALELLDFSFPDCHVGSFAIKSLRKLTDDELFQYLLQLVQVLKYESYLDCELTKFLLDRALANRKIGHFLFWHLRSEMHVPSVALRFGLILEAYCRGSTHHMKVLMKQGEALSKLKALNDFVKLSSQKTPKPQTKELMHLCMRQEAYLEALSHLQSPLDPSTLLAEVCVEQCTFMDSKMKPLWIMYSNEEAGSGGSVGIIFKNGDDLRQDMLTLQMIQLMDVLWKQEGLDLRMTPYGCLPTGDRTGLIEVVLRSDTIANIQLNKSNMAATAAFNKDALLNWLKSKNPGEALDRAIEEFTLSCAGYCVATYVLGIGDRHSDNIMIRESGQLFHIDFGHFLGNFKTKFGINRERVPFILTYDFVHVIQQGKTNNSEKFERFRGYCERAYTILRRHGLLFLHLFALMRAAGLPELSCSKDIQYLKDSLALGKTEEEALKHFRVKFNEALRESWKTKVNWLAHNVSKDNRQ
# Description: Inhibition of PI3Kdelta (unknown origin) using biotin-PIP3 as substrate preincubated for 15 mins followed by substrate addition and measured after 60 mins by fluorescence polarization assay
# [7] = molecular target: Phosphatidylinositol 4,5-bisphosphate 3-kinase catalytic subunit gamma isoform (Homo sapiens, UniProt P48736)
# Sequence of Phosphatidylinositol 4,5-bisphosphate 3-kinase catalytic subunit gamma isoform (P48736 whole entry, canonical isoform): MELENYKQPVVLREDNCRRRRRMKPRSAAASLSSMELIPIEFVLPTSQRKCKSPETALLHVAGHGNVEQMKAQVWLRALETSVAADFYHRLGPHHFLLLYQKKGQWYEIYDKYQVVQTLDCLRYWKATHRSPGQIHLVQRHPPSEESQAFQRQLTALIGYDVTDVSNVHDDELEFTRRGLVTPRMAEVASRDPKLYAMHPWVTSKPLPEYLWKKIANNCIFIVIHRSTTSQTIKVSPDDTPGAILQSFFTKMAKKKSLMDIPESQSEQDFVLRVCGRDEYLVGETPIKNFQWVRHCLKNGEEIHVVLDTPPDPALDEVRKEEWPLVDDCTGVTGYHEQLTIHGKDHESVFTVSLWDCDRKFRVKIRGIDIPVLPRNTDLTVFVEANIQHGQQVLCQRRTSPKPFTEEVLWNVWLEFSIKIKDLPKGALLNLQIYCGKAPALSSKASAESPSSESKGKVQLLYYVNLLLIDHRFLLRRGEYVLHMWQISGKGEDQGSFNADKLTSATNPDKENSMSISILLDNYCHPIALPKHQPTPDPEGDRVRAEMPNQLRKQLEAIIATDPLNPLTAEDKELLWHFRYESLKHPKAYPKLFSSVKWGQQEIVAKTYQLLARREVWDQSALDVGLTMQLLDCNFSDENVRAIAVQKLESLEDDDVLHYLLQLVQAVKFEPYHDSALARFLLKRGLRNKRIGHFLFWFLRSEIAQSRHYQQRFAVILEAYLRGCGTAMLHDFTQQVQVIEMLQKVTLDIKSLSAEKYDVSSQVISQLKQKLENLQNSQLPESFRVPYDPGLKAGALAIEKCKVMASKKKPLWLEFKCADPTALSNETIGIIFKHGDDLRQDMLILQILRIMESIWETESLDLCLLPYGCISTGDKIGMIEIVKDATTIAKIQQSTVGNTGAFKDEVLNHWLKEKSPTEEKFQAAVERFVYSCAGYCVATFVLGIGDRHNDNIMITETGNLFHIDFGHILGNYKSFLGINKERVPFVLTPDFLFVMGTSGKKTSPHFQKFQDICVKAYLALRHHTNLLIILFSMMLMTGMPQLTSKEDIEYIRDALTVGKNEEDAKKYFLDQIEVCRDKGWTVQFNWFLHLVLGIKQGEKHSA
# Description: Inhibition of PI3Kgamma (unknown origin) using biotin-PIP3 as substrate preincubated for 15 mins followed by substrate addition and measured after 60 mins by fluorescence polarization assay
# Sequence of Phosphatidylinositol 4,5-bisphosphate 3-kinase catalytic subunit beta isoform (P42338 whole entry, canonical isoform): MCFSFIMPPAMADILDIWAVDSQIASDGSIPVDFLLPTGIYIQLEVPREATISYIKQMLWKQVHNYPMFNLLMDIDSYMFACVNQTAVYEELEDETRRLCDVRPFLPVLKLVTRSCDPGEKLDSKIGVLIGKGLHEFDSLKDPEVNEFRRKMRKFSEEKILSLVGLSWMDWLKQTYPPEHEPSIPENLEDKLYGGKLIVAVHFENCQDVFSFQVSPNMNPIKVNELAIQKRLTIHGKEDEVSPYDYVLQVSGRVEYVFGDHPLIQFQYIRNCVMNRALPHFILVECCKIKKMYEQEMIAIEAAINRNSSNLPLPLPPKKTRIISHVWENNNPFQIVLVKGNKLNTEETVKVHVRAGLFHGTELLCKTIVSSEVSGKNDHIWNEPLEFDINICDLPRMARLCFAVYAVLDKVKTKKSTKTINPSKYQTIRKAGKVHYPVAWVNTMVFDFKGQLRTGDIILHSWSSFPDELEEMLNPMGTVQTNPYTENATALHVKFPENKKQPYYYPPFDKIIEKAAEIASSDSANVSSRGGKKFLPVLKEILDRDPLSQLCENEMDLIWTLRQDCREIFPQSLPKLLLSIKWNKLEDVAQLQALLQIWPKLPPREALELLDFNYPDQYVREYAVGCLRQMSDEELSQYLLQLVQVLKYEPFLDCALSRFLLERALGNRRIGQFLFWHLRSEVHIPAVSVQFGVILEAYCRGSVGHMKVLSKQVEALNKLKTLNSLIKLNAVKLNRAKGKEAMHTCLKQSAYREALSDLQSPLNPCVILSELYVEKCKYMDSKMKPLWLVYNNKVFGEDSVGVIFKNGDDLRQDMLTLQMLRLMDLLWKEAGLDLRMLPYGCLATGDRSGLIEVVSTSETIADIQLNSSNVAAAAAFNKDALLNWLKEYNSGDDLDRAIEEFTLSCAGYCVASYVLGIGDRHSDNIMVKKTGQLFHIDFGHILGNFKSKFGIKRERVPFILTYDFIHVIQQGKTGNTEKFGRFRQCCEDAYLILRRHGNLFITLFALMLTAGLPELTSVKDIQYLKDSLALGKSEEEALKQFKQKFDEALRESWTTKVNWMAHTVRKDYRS
pIC50 [1],Activity [2],solubility kinetic [3],logD [4],pIC50 [5],pIC50 [6],pIC50 [7],Compound
6.60,87.8%,118 µM,3.3,7.80,8.10,7.60,CN(C1CCN(Cc2cc3nc(-c4cnc(N)nc4)nc(N4CCOCC4)c3s2)CC1)S(C)(=O)=O
6.00,94.3%,238 µM,4.6,5.00,7.90,–,COCC(=O)N(C)C1CCN(Cc2cc3nc(-c4cccc5[nH]ccc45)nc(N4CCOCC4)c3s2)CC1
5.70,94.5%,–,4.4,5.50,7.90,–,CC(=O)N(C)C1CCN(Cc2cc3nc(-c4cccc5[nH]ccc45)nc(N4CCOCC4)c3s2)CC1
5.80,–,–,2.8,7.00,7.30,6.90,COCC(=O)N(C)C1CCCN(Cc2cc3nc(-c4cnc(N)nc4)nc(N4CCOCC4)c3s2)C1 (racemic)
5.60,–,–,4.1,5.40,6.90,5.60,CNC(=O)NC1CCCN(Cc2cc3nc(-c4cccc5[nH]ccc45)nc(N4CCOCC4)c3s2)C1 (racemic)
5.30,–,–,3.8,6.20,7.10,6.00,COCC(=O)N(C)C1CCN(Cc2cc3nc(-c4cccc5[nH]ncc45)nc(N4CCOCC4)c3s2)C1 (racemic)
5.00,–,–,3,6.30,6.50,6.20,COCC(=O)NC1CCCN(Cc2cc3nc(-c4cnc(N)nc4)nc(N4CCOCC4)c3s2)C1 (racemic)
5.70,–,–,3.1,7.20,7.80,7.00,CC(=O)N(C)C1CCCN(Cc2cc3nc(-c4cnc(N)nc4)nc(N4CCOCC4)c3s2)C1 (racemic)
5.10,–,–,4.3,6.30,7.30,5.80,CS(=O)(=O)NC1CCCN(Cc2cc3nc(-c4cccc5[nH]ncc45)nc(N4CCOCC4)c3s2)C1 (racemic)
5.00,–,–,4.5,5.50,6.90,5.20,CNC(=O)N(C)C1CCCN(Cc2cc3nc(-c4cccc5[nH]ccc45)nc(N4CCOCC4)c3s2)C1 (racemic)
6.00,–,–,3.5,7.40,8.30,7.60,CN(C1CCCN(Cc2cc3nc(-c4cnc(N)nc4)nc(N4CCOCC4)c3s2)C1)S(C)(=O)=O (racemic)
6.80,80.9%,≥ 491 µM,2.4,8.00,7.90,7.70,CS(=O)(=O)NC1CCN(Cc2cc3nc(-c4cnc(N)nc4)nc(N4CCOCC4)c3s2)C1 (racemic)
6.20,–,–,2.8,7.70,7.90,7.40,CC(=O)N(C)C1CCN(Cc2cc3nc(-c4cnc(N)nc4)nc(N4CCOCC4)c3s2)C1 (racemic)
5.50,95.2%,85 µM,4.8,5.50,7.70,5.70,COCC(=O)N(C)C1CCCN(Cc2cc3nc(-c4cccc5[nH]ccc45)nc(N4CCOCC4)c3s2)C1 (racemic)
5.90,–,–,5,5.80,7.60,6.00,CS(=O)(=O)NC1CCCN(Cc2cc3nc(-c4cccc5[nH]ccc45)nc(N4CCOCC4)c3s2)C1 (racemic)
5.20,–,–,4.3,6.10,6.90,5.50,COCC(=O)N(C)C1CCCN(Cc2cc3nc(-c4cccc5[nH]ncc45)nc(N4CCOCC4)c3s2)C1 (racemic)

pIC50 [1],Activity [2],solubility kinetic [3],logD [4],pIC50 [5],pIC50 [6],pIC50 [7],Compound
6.50,–,–,3.1,7.70,7.80,7.40,CS(=O)(=O)NC1CCCN(Cc2cc3nc(-c4cnc(N)nc4)nc(N4CCOCC4)c3s2)C1 (racemic)
5.60,–,–,5,5.80,7.60,5.60,CC(=O)N(C)C1CCCN(Cc2cc3nc(-c4cccc5[nH]ccc45)nc(N4CCOCC4)c3s2)C1 (racemic)
6.30,–,–,5.1,6.20,8.00,6.30,CN(C1CCN(Cc2cc3nc(-c4cccc5[nH]ccc45)nc(N4CCOCC4)c3s2)C1)S(C)(=O)=O (racemic)
6.60,–,–,3.1,8.10,8.20,7.90,CN(C1CCN(Cc2cc3nc(-c4cnc(N)nc4)nc(N4CCOCC4)c3s2)C1)S(C)(=O)=O (racemic)
6.60,81.2%,≥ 2720 µM,2.7,7.80,8.20,8.10,COCC(=O)N(C)C1CCN(Cc2cc3nc(-c4cnc(N)nc4)nc(N4CCOCC4)c3s2)C1 (racemic)
5.80,–,–,4.6,6.90,7.60,6.40,CN(C1CCN(Cc2cc3nc(-c4cccc5[nH]ncc45)nc(N4CCOCC4)c3s2)C1)S(C)(=O)=O (racemic)
5.70,–,–,4.5,6.60,7.40,6.30,CC(=O)N(C)C1CCCN(Cc2cc3nc(-c4cccc5[nH]ncc45)nc(N4CCOCC4)c3s2)C1 (racemic)
5.70,–,–,2.9,7.10,7.10,6.70,CNC(=O)N(C)C1CCCN(Cc2cc3nc(-c4cnc(N)nc4)nc(N4CCOCC4)c3s2)C1 (racemic)
6.00,–,–,3.6,6.70,7.70,6.00,CC(=O)N(C)C1CCN(Cc2cc3nc(-c4cccc5[nH]ncc45)nc(N4CCOCC4)c3s2)C1 (racemic)
6.30,94.4%,251 µM,4.5,6.10,8.20,6.20,CC(=O)N(C)C1CCN(Cc2cc3nc(-c4cccc5[nH]ccc45)nc(N4CCOCC4)c3s2)C1 (racemic)
5.60,–,–,4.9,6.70,7.70,6.10,CN(C1CCCN(Cc2cc3nc(-c4cccc5[nH]ncc45)nc(N4CCOCC4)c3s2)C1)S(C)(=O)=O (racemic)
5.20,–,–,4.5,6.40,7.00,5.60,COCC(=O)NC1CCCN(Cc2cc3nc(-c4cccc5[nH]ncc45)nc(N4CCOCC4)c3s2)C1 (racemic)
5.60,94.1%,179 µM,–,5.40,8.00,6.00,COCC(=O)N(C)C1CCN(Cc2cc3nc(-c4cccc5[nH]ccc45)nc(N4CCOCC4)c3s2)C1 (racemic)
5.80,95.6%,–,5.5,6.10,8.20,6.30,CN(C1CCCN(Cc2cc3nc(-c4cccc5[nH]ccc45)nc(N4CCOCC4)c3s2)C1)S(C)(=O)=O (racemic)
5.70,–,–,2.6,7.10,6.90,6.80,CNC(=O)NC1CCCN(Cc2cc3nc(-c4cnc(N)nc4)nc(N4CCOCC4)c3s2)C1 (racemic)
5.10,–,–,3.6,6.50,7.00,5.50,CNC(=O)NC1CCCN(Cc2cc3nc(-c4cccc5[nH]ncc45)nc(N4CCOCC4)c3s2)C1 (racemic)
